Measured values: patent publication EP4483954A1 (Masarykova Univerzita, priority 2023, dated 2025)

What was measured:
Type in all cases: biochemical
Haspin (h) = biological target: T1, Haspin (h) (Homo sapiens, UniProt Q8TF76); assay: radiometric kinase assay (KinaseProfiler, Eurofins), Haspin; conditions: in vitro radiometric kinase assay, tested at 1 nM to 10 000 nM, no pre-incubation; read-out: inhibitory activities (IC50 values) Haspin
T1 construct: purchased Eurofins (KinaseProfiler)
T1 sequence (Q8TF76 1-798): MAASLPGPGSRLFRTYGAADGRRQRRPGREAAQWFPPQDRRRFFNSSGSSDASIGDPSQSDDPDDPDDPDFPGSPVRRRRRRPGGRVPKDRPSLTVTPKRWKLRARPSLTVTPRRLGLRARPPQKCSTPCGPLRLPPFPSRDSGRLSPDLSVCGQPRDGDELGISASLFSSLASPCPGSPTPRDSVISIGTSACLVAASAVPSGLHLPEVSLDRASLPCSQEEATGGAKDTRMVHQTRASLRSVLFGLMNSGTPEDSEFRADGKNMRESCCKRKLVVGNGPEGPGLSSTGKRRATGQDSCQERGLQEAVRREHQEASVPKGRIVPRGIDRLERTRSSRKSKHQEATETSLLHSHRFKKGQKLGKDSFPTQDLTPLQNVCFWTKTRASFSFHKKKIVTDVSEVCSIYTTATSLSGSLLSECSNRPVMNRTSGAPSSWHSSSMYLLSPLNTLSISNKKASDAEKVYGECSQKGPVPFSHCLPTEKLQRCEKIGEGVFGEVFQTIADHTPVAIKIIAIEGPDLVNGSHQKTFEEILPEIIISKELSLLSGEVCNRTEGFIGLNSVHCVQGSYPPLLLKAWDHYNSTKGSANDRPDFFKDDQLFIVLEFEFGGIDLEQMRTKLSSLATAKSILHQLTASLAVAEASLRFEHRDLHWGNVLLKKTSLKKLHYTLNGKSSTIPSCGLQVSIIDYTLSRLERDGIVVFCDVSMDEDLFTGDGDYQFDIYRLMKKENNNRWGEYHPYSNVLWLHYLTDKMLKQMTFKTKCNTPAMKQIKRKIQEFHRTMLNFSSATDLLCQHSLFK
Method in brief: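 Human Haspin in 8 mM MOPS pH 7.0 with 500 µM RARTLSFAEPG, 10 mM Mg acetate and γ-33P-ATP; compound added without preincubation. Reaction ran 40 min at room temperature, then filter-bound 33P was counted. Nine concentrations from 1 to 10 000 nM gave % remaining activity versus DMSO, and IC50 came from curve fit.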

TRB2(h) = biological target: T2, TRB2(h) (Homo sapiens, UniProt Q92519); assay: radiometric kinase assay (KinaseProfiler, Eurofins), TRB2; conditions: in vitro radiometric kinase assay, tested at 1 nM to 10 000 nM, no pre-incubation; read-out: inhibitory activities (IC50 values) TRB2
T2 construct: purchased Eurofins (KinaseProfiler)
T2 sequence (Q92519 1-343): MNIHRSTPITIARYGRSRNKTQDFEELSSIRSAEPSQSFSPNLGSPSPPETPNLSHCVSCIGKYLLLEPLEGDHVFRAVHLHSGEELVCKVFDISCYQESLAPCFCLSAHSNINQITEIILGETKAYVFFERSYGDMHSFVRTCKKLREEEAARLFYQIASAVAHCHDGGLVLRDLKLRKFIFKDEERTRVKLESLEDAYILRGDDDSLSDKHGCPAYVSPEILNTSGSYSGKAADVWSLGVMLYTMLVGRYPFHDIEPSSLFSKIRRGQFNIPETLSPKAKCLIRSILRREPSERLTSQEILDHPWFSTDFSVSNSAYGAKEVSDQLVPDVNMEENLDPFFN
Description: (§1) The compounds were profiled in the radiometric assays (KinaseProfiler, Eurofins).
(§2) Briefly, kinases were diluted in the buffer shown below prior to addition to the reaction mix: • CDKL3, TAF1L: 20 mM Tris/HCl pH 8.5, 0.2 mM EDTA, 0.1% β-mercaptoethanol, 0.01% Brij-35, 5% glycerol, 1 mg/ml BSA; • Haspin: 15 mM MOPS, 0.75 mM EDTA, 0.0075% Brij-35, 3.75% Glycerol, 150 mM NaCl, 0.1% β-mercaptoethanol, 1 mg/mLBSA; • CDKL4, CLK2, PIM1, TRB2: […], 1 mM EDTA, 0.01% Brij-35, 5% Glycerol, 0.1% β-mercaptoethanol, 1 mg/mL BSA.
(§3) All compounds were prepared to 50x final assay concentration in 100% DMSO. This working stock of the compound was added to the assay well as the first component in the reaction, followed by the remaining components as detailed in the general assay protocols below. There was no pre-incubation step between the compound and the kinase prior to initiation of the reaction.
(§4) TRB2(h) was incubated with 8 mM MOPS pH 7.0, 0.2 mM EDTA, 250 µM RRRFRPASPLRGPPK (SEQ ID NO. 1), 10 mM magnesium acetate and γ-^33P-ATP (specific activity and concentration as required). The reaction was initiated by the addition of the Mg/ATP mix. After incubation for 120 minutes at room temperature, the reaction was stopped by the addition of phosphoric acid to a concentration of 0.5%. An aliquot of the stopped reaction was spotted onto a filter and washed four times for 4 minutes in 0.425% phosphoric acid and once in methanol prior to drying and scintillation counting.
(§5) Kinase activity data were expressed as the percent remaining kinase activity in tested samples compared to the vehicle (DMSO) reactions. The compounds were tested at the following concentrations: 1 nM, 3 nM, 10 nM, 30 nM, 100 nM, 300 nM, 1000 nM, 3000 nM, and 10 000 nM; IC50 values and curve fits were then obtained.

CDKL3(h) = biological target: T3, CDKL3(h) (Homo sapiens, UniProt Q8IVW4); assay: radiometric kinase assay (KinaseProfiler, Eurofins), CDKL3; conditions: in vitro radiometric kinase assay, tested at 1 nM to 10 000 nM, no pre-incubation; read-out: inhibitory activities (IC50 values) CDKL3
T3 construct: purchased Eurofins (KinaseProfiler)
Description: as §1, §2, §3
as §4, with “CDKL3(h)” for “TRB2(h)”
as §5

T3 sequence (Q8IVW4 whole entry): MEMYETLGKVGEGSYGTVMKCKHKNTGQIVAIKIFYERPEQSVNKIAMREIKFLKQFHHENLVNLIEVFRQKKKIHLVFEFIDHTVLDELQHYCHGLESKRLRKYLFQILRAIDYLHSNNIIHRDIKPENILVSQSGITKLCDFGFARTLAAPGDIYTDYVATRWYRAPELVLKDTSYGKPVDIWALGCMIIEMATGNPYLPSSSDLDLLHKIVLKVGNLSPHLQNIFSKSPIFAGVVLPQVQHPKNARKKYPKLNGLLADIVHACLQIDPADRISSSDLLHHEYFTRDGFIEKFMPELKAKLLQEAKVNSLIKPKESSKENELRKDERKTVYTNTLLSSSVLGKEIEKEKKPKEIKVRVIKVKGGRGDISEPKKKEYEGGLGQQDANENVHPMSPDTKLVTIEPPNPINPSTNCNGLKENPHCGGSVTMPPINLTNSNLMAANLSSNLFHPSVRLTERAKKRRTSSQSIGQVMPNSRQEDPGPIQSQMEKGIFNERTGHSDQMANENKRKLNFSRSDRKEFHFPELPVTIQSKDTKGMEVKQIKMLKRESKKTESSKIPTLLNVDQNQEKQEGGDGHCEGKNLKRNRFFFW

| Compound | IC50 (Haspin (h)) [nM] | IC50 (TRB2(h)) [nM] | IC50 (CDKL3(h)) [nM] |
| --- | --- | --- | --- |
| Cc1nn(C)c(C)c1-c1ccc2scc(-c3ccncc3)c2n1 [Preparative Example 85, 3-(pyridin-4-yl)-5-(1,3,5-trimethyl-1H-pyrazol-4-yl)thieno[3,2-b]pyridine] | 500 to 3000 | 500 to 3000 | 500 to 3000 |
| Cn1cc(-c2ccc3scc(C4=CCNCC4)c3n2)cn1 [Preparative Example 9, 5-(1-methyl-1H-pyrazol-4-yl)-3-(1,2,3,6-tetrahydropyridin-4-yl)-thieno[3.2-b]pyridine] | 500 to 3000 | 3000 to 10000 | 500 to 3000 |
| Cn1ccc(-c2cc(Cl)c3scc(-c4ccncc4)c3n2)n1 [Preparative Example 163, 7-chloro-5-(1-methyl-1H-pyrazol-3-yl)-3-(pyridin-4-yl)thieno[3,2-b]pyridine] | 100 to 499 | 500 to 3000 | 500 to 3000 |

Other lines, results leading:

| IC50 (Haspin (h)) [nM] | IC50 (TRB2(h)) [nM] | IC50 (CDKL3(h)) [nM] | Compound |
| --- | --- | --- | --- |
| 20 to 99 | 3000 to 10000 | 3000 to 10000 | Cc1cc2scc(-c3ccncc3)c2nc1-c1ccn(C)n1 [Preparative Example 151, 6-methyl-5-(1-methyl-1H-pyrazol-3-yl)-3-(pyridin-4-yl)thieno[3,2-b]pyridine] |
| 3000 to 10000 | 3000 to 10000 | 500 to 3000 | Cc1cnccc1-c1csc2ccc(-c3cnn(C)c3)nc12 [Preparative Example 32, 5-(1-methyl-1H-pyrazol-4-yl)-3-(3-methylpyridin-4-yl)thieno[3,2-b]pyridine] |
